Converted amounts (≈) assume the structure as drawn. Like-named read-outs stand apart in the source and are kept apart here.
How the values were obtained:
[1] = Acute toxicity in mice (LD50); assay type: in vivo; details: ddY male mice, suspended in 5% Arabic gum solution, observed for 7 days; for LD50 at 168 h: mouse, in vivo
Method: Experimental Example 7: Acute Toxicity in Mice
Each compound of the invention was suspended in 5% Arabic gum solution and given orally (p.o.) or intraperitoneally (i.p.) to groups of ten ddY male mice weighed from 24 to 26 g at the dosage volume of 10 ml/kg. […] LD50 was determined according to the method of Wilcoxon and Litchfield.

Influenza B = assay: microbe, parasite or virus in culture; assay type: cell-based
influenza A0 virus = assay: animal or person; assay type: in vivo, mice; details: for responders at 300 mg/kg / responders at 100 mg/kg / responders at 10 mg/kg / responders at 30 mg/kg: Mus musculus, 360 h, twice a day for 14 days, survivors at 15th day, read-out: Survival rate; for protective action against death due to the infection: result in words, Tables 3 and 4
Coxsackie Type B5 = assay: microbe, parasite or virus in culture; assay type: cell-based; details: virus G = Coxsackie Type B5
Influenza A1 = assay: microbe, parasite or virus in culture; assay type: cell-based
Influenza A0 = assay: microbe, parasite or virus in culture; assay type: cell-based; details: virus A = Influenza A0, MDCK, Vero and HEL cells, 2 or 3 days
Rhino = assay: microbe, parasite or virus in culture; assay type: cell-based
Parainfluenza Type 3 = assay: microbe, parasite or virus in culture; assay type: cell-based; details: virus E = Parainfluenza Type 3
ECHO = assay: microbe, parasite or virus in culture; assay type: cell-based
influenza virus A/WSN = assay: animal or person; assay type: in vivo, mice; details: in Mus musculus, 360 h, read-out: Survival rate
[2] = ip, i.p., read-out: LD50 value, Intraperitoneal administration
[3] = po, p.o., read-out: LD50 value, Oral administration

| Compound | LD50 at 168 h [1, 2] [mg/kg] | LD50 at 168 h [1, 3] [mg/kg] | MIC (Influenza B) [µg/mL] | responders at 300 mg/kg (influenza A0 virus; oral) [%] | responders at 100 mg/kg (influenza A0 virus; ip, intraperitoneal) [%] | MIC (Coxsackie Type B5) [µg/mL] | MIC (Influenza A1) [µg/mL] | MIC (Influenza A0) [µg/mL] | MIC (Rhino) [µg/mL] | MIC (Parainfluenza Type 3) [µg/mL] | MIC (ECHO) [µg/mL] | also measured |
| --- | --- | --- | --- | --- | --- | --- | --- | --- | --- | --- | --- | --- |
| NS(=O)(=O)c1cc(C(=O)O)c(F)cc1Cl [Compound 16] | > 1000 | > 3000 | 300 (≈ 1180 µM) | 50 | 50 | 30 (≈ 118 µM) | 300 (≈ 1180 µM) | 30 (≈ 118 µM) | 300 (≈ 1180 µM) | 300 (≈ 1180 µM) | 300 (≈ 1180 µM) |  |
| NS(=O)(=O)c1cc(C(=O)O)c(Cl)cc1Cl [Compound 19] |  |  |  |  |  |  |  |  |  |  |  | LD50 value, Intraperitoneal administration ([1]; i.p.): >1,000 mg/kg; LD50 value, Oral administration ([1]; p.o.): >3,000 mg/kg; protective action against death due to the infection (influenza A0 virus): extremely excellent activity |
| CCNS(=O)(=O)c1cc(C(=O)O)ccc1Cl [Compound 2] |  |  |  |  |  |  |  |  |  |  |  | LD50 value, Intraperitoneal administration ([1]; i.p.): >1,000 mg/kg; LD50 value, Oral administration ([1]; p.o.): >3,000 mg/kg |
| NS(=O)(=O)c1cc(C(=O)OCc2ccccc2)c(Cl)cc1Cl [Compound 39] | > 1000 | > 3000 |  |  |  |  |  |  |  |  |  | responders at 100 mg/kg (influenza virus A/WSN; po): 30%; responders at 300 mg/kg (influenza virus A/WSN; po): 40% |
| NS(=O)(=O)c1cc(C(=O)OC2CCCCC2)c(Cl)cc1Cl [Compound 38] | > 1000 | > 3000 |  |  |  |  |  |  |  |  |  | responders at 30 mg/kg (influenza virus A/WSN; ip): 30%; responders at 100 mg/kg (influenza virus A/WSN; ip): 40% |
| CN1CCN(S(=O)(=O)c2cc(C(=O)O)ccc2Cl)CC1 [Compound 13] | > 1000 | > 3000 | 100 (≈ 314 µM) | 70 |  | 100 (≈ 314 µM) | 100 (≈ 314 µM) | 10 (≈ 31.4 µM) | 300 (≈ 941 µM) | 300 (≈ 941 µM) | 300 (≈ 941 µM) | responders at 100 mg/kg (influenza A0 virus; oral): 50%; responders at 10 mg/kg (influenza A0 virus; ip, intraperitoneal): 40%; responders at 30 mg/kg (influenza A0 virus; ip, intraperitoneal): 50%; protective action against death due to the infection (influenza A0 virus): extremely excellent activity |
| O=C(O)c1ccc(Cl)c(S(=O)(=O)N2CCCC2)c1 [Compound 12] | > 1000 | > 3000 | 300 (≈ 1040 µM) | 40 | 40 | 100 (≈ 345 µM) | 300 (≈ 1040 µM) | 30 (≈ 104 µM) | 300 (≈ 1040 µM) | 300 (≈ 1040 µM) | 300 (≈ 1040 µM) |  |
| COC(=O)c1ccc(F)c(S(N)(=O)=O)c1 [Compound 28] |  |  |  |  |  |  |  |  |  |  |  | LD50 value, Intraperitoneal administration ([1]; i.p.): >1,000 mg/kg; LD50 value, Oral administration ([1]; p.o.): >3,000 mg/kg |
| NS(=O)(=O)c1cc(C(=O)O)cc([N+](=O)[O-])c1Cl [Compound 15] | > 1000 | > 3000 | 300 (≈ 1070 µM) | 50 | 50 | 300 (≈ 1070 µM) | 300 (≈ 1070 µM) | 30 (≈ 107 µM) | 300 (≈ 1070 µM) | 300 (≈ 1070 µM) | 100 (≈ 356 µM) |  |
| NNS(=O)(=O)c1cc(C(=O)O)ccc1Cl [Compound 7] | 746 | > 3000 | 100 (≈ 399 µM) | 60 |  | 300 (≈ 1200 µM) | 300 (≈ 1200 µM) | 10 (≈ 39.9 µM) | 300 (≈ 1200 µM) | 300 (≈ 1200 µM) | 300 (≈ 1200 µM) | responders at 100 mg/kg (influenza A0 virus; oral): 40%; responders at 10 mg/kg (influenza A0 virus; ip, intraperitoneal): 30%; responders at 30 mg/kg (influenza A0 virus; ip, intraperitoneal): 50%; protective action against death due to the infection (influenza A0 virus): extremely excellent activity |
| O=C(O)c1ccc(Cl)c(S(=O)(=O)NNc2ccc(Cl)nn2)c1 [Compound 10] | > 1000 | > 3000 | 300 (≈ 826 µM) | 40 | 40 | 300 (≈ 826 µM) | 300 (≈ 826 µM) | 30 (≈ 82.6 µM) | 300 (≈ 826 µM) | 300 (≈ 826 µM) | 100 (≈ 275 µM) |  |
| CN(CCO)S(=O)(=O)c1cc(C(=O)O)ccc1Cl [Compound 6] | > 1000 | > 3000 | 300 (≈ 1020 µM) | 40 | 60 | 300 (≈ 1020 µM) | 300 (≈ 1020 µM) | 30 (≈ 102 µM) | 300 (≈ 1020 µM) | 300 (≈ 1020 µM) | 100 (≈ 340 µM) |  |
| CN(C)S(=O)(=O)c1cc(C(=O)O)ccc1Cl [Compound 3] |  |  |  |  |  |  |  |  |  |  |  | LD50 value, Intraperitoneal administration ([1]; i.p.): >1,000 mg/kg; LD50 value, Oral administration ([1]; p.o.): >3,000 mg/kg |
| O=C(O)c1ccc(Cl)c(S(=O)(=O)NCCO)c1 [Compound 5] | > 1000 | > 3000 | 300 (≈ 1070 µM) | 50 | 40 | 300 (≈ 1070 µM) | 300 (≈ 1070 µM) | 30 (≈ 107 µM) | 300 (≈ 1070 µM) | 100 (≈ 358 µM) | 300 (≈ 1070 µM) |  |

Source: patent EP0068408A1 (priority 1981, dated 1983)
